Molecules are shown by their SMILES. ≈ marks a conversion by molar mass, not a printed value. Entries after “also recorded” stand apart in the source; their conditions may differ.

In general, aqueous solubility refers to the dissolved amount per volume that the medium holds.

The nature of data set [1]: Solid-state stability study, accelerated conditions (40° C./75% RH, 4 months). The settings on record: for stability to polymorph conversion or hydrate formation on long storage (summary of Tables 4 and 5): 4 months accelerated conditions and 6 months ambient conditions; for Appearance / XRPD analysis: 40° C./75% RH - 4 months, sealed container. The data set is classed as physicochemical. As to the method:
A study was carried out to examine the physical stability of the olaparib oxalic acid cocrystals with respect to solid form conversion or signs of decomposition over time under both ambient and accelerated conditions. 50 mg each of the 2:3 olaparib oxalic acid cocrystal, 1:1 olaparib oxalic acid cocrystal, and 2:1 olaparib oxalic acid cocrystal were separately placed in a sealed container at 40° C. and 75% relative humidity and stored under these conditions for 4 months. After this time, all samples remained as white solids with no signs of deliquescence.

A short description of data set [2]: Solid-state stability study, ambient conditions (6 months). The data set is classed as physicochemical. The settings on record: clear glass vial. On the procedure:
A second stability study was carried out where 50 mg each of the 2:3 olaparib oxalic acid cocrystal, 1:1 olaparib oxalic acid cocrystal, and 2:1 olaparib oxalic acid cocrystal were separately placed in a clear glass vial which was then stored under ambient conditions for 6 months. After this time, all the cocrystals remained as white solids with no signs of colour change.

The nature of data set [3]: Dissolution study in simulated intestinal fluid (FaSSIF V2). The data set is classed as physicochemical. The settings on record: from four minutes onwards; 50 ml FaSSIF V2, pH 6.5, 37° C.; FIG. 12. From the text:
For BCS class IV drugs, such as olaparib, where both solubility and permeability are limited, the rate of dissolution of the drug form used can be the controlling factor in the overall absorption and thus the bioavailability of a drug. This becomes even more influential as the dose of a drug increases. Given the high dose of olaparib needed in its current marketed indications it is likely that a high dose may be needed for use in alternative conditions, thus finding a crystalline form of olaparib that has a high dissolution rate is important. A study was, therefore, carried out to examine the rate of dissolution of the 2:3 olaparib oxalic acid cocrystal, 1:1 olaparib oxalic acid cocrystal, and 2:1 olaparib oxalic acid compared with the 1:1 olaparib urea cocrystal of CN 105753789 and the pure crystalline olaparib form A. The dissolution study was carried out using 50 ml simulated intestinal fluid (FaSSIF V2) at pH 6.5 (37° C.) using a quantity of each olaparib form equivalent to 25 mg olaparib. […] Detection and quantification of olaparib was performed by in-situ UV-spectroscopy using a fibre-optic probe, allowing instantaneous data collection from the point of sample introduction. UV absorption data was converted to mg/ml (±0.2 mg/ml) using a previously determined pH dependent molar extinction coefficients to quantitate the amount of dissolved drug.

A short description of data set [4]: Gravimetric Vapour Sorption (GVS) analysis. The settings on record: for polymorphic form conversion or hydrate formation under raised relative humidity levels: GVS; for moisture reversibly adsorbed (GVS): across the 0-90% relative humidity range at 25° C. under nitrogen; for XRPD analysis post GVS analysis: at both 0% RH and 90% RH. The data set is classed as physicochemical. On the procedure:
Gravimetric Vapor Isotherm (GVS) Analysis: Sorption isotherms were obtained using a Hiden Isochema moisture sorption analyser (model IGAsorp), controlled by IGAsorp Systems Software V6.50.48. The sample was maintained at a constant temperature (25° C.) by the instrument controls. The humidity was controlled by mixing streams of dry and wet nitrogen, with a total flow of 250 ml·min^−1. The instrument was verified for relative humidity content by measuring three calibrated Rotronic salt solutions (10-50-88%). The weight change of the sample was monitored as a function of humidity by a microbalance (accuracy +/−0.005 mg). A defined amount of sample was placed in a tared mesh stainless steel basket under ambient conditions. The sample was held at 50% RH for ˜60 minutes and then the initial desorption cycle was initiated. A full experimental cycle typically consisted of three scans (desorption, sorption and desorption) at a constant temperature (25° C.) and 10% RH intervals over a 0-90% range (60 minutes for each humidity level). Data analysis was performed in Microsoft Excel. […] XRPD analysis at both 0% RH and 90% RH post GVS analysis confirmed that the cocrystal was unchanged. […]

The conditions of data set [5]: EMA/CHMP/789139/2014; low solubility and low permeability; cited from earlier work.
The conditions of data set [6]: pH independent; cited from earlier work.

Regarding `O=C(O)C(=O)O.O=C(c1cc(Cc2n[nH]c(=O)c3ccccc23)ccc1F)N1CCN(C(=O)C2CC2)CC1` [1:1 olaparib oxalic acid cocrystal], in data set [1], the “stability to polymorph conversion or hydrate formation on long storage (summary of Tables 4 and 5)” value (“stability” below) is listed as “stable to polymorph conversion or hydrate formation”; the Appearance entry is given as “No change”; the XRPD analysis result was “No change”. Besides, in data set [2], the Appearance entry is “No change” and the XRPD analysis entry is reported as “No change”.

Consider `NC(N)=O.O=C(c1cc(Cc2n[nH]c(=O)c3ccccc23)ccc1F)N1CCN(C(=O)C2CC2)CC1` [1:1 olaparib urea cocrystal], for which, in data set [3], the “level of dissolution compared with pure crystalline olaparib form A” value is given as “only achieves the same level of dissolution as pure crystalline olaparib form A”.

As to `O=C(O)C(=O)O.O=C(c1cc(Cc2n[nH]c(=O)c3ccccc23)ccc1F)N1CCN(C(=O)C2CC2)CC1.O=C(c1cc(Cc2n[nH]c(=O)c3ccccc23)ccc1F)N1CCN(C(=O)C2CC2)CC1` [2:1 olaparib oxalic acid cocrystal], the “polymorphic form conversion or hydrate formation under raised relative humidity levels” value in data set [4] (0-90% RH, 25° C.) is given as “does not show any polymorphic form conversion or hydrate formation”. For the same molecule, in data set [4], the “moisture reversibly adsorbed (GVS)” value came out at 0.59 % w/w and the “XRPD analysis post GVS analysis” value was “unchanged”. Besides, in data set [1], the “stability” value is reported as “stable to polymorph conversion or hydrate formation”; the Appearance entry is listed as “No change”; the XRPD analysis entry is reported as “No change”. In data set [2], the Appearance result was “No change” and the XRPD analysis entry is “No change”.

As for `O=C(O)C(=O)O.O=C(O)C(=O)O.O=C(O)C(=O)O.O=C(c1cc(Cc2n[nH]c(=O)c3ccccc23)ccc1F)N1CCN(C(=O)C2CC2)CC1.O=C(c1cc(Cc2n[nH]c(=O)c3ccccc23)ccc1F)N1CCN(C(=O)C2CC2)CC1` [2:3 olaparib oxalic acid cocrystal], in data set [4] (0-90% RH, 25° C.), the hygroscopicity result is “not hygroscopic” and the “polymorphic form conversion or hydrate formation under raised relative humidity levels” value is reported as “does not show any polymorphic form conversion or hydrate formation”. For the same molecule, in data set [4], the “moisture reversibly adsorbed (GVS)” value stood at 0.23 % w/w and the “XRPD analysis post GVS analysis” value was “unchanged”. Further, in data set [1], the “stability” value was “stable to polymorph conversion or hydrate formation”; the Appearance result is “No change”; the XRPD analysis entry was “No change”.

For the molecule `O=C(c1cc(Cc2n[nH]c(=O)c3ccccc23)ccc1F)N1CCN(C(=O)C2CC2)CC1` [olaparib, 4-[(3-{[4-(cyclopropylcarbonyl)piperazin-1-yl]carbonyl}-4-fluorophenyl)methyl]phthalazin-1(2H)-one], the BCS class entry in data set [5] is reported as “class IV; also recorded: class 4”.

As for `O=C(c1cc(Cc2n[nH]c(=O)c3ccccc23)ccc1F)N1CCN(C(=O)C2CC2)CC1` [polymorph A], the aqueous solubility in data set [6] was about 100 µg/mL (≈ 230 µM).

The values are drawn from patent US12012386B2, “Olaparib oxalic acid cocrystals and their pharmaceutical use” (NUFORMIX TECHNOLOGIES LIMITED, priority 2020, dated 2024).
